One assay has as its target hVR1 (Homo sapiens (Human), UniProt Q8NER1). Briefly: FLIPR Ca2+ influx assay on CHO K1 cells transfected with the VR1 gene, capsaicin stimulus (method II). The assay is classed as cell-based. Set-up: key to Ki (human being) Cap: result in words (NE / AG): AG=agonist; pAG=partial agonist; NE=no effect. As to conditions: CHO-K1, read-out: Ki (human being) Cap column: inhibition (as a percentage) @ 5 μM, capsaicin, inhibition determined at 5 μM. From the text:
In the process, the Ca^2+ influx is quantified in the FLIPR assay with the aid of a Ca^2+-sensitive dye (type Fluo-4, Molecular Probes Europe BV, Leiden, the Netherlands) in a fluorescent imaging plate reader (FLIPR, Molecular Devices, Sunnyvale, USA), as described hereinafter.
The agonistic or antagonistic effect of the substances to be tested on the vanilloid receptor 1 (VR1) can also be determined using the following assay. In this assay, the influx of Ca^2+ through the channel is quantified with the aid of a Ca^2+-sensitive dye (type Fluo-4, Molecular Probes Europe BV, Leiden, the Netherlands) in a fluorescent imaging plate reader (FLIPR, Molecular Devices, Sunnyvale, USA).
Chinese hamster ovary cells (CHO K1 cells, European Collection of Cell Cultures (ECACC) United Kingdom) are stably transfected with the VR1 gene. For functional testing, these cells are plated out on poly-D-lysine-coated black 96-well plates having a clear base (BD Biosciences, Heidelberg, Germany) at a density of 25,000 cells/well. The cells are incubated overnight at 37° C. and 5% CO2 in a culture medium (Ham's F12 nutrient mixture, 10% by volume of FCS (foetal calf serum), 18 μg/ml of L-proline). The next day the cells are incubated with Fluo-4 (Fluo-4 2 μM, 0.01% by volume of Pluronic F127, Molecular Probes in HBSS (Hank's buffered saline solution), Gibco Invitrogen GmbH, Karlsruhe, Germany) for 30 minutes at 37° C. Subsequently, the plates are washed three times with HBSS buffer and after further incubation for 15 minutes at RT used for Ca^2+ measurement in a FLIPR assay. The Ca^2+-dependent fluorescence is measured before and after the addition of the substances to be tested (λex wavelength=488 nm, λem=540 nm). Quantification is carried out by measuring the highest fluorescence intensity (FC, fluorescence counts) over time.
The FLIPR protocol consists of 2 substance additions. First the compounds to be tested (10 μM) are pipetted onto the cells and the Ca^2+ influx is compared with the control (capsaicin 10 μM) (% activation based on the Ca^2+ signal after the addition of 10 μM of capsaicin). After 5 minutes' incubation, 100 nM of capsaicin are applied and the Ca^2+ influx is also determined.
Desensitising agonists and antagonists led to suppression of the Ca^2+ influx.
Starting from the percentage displacement caused by different concentrations of the compounds to be tested of general formula I, IC50 inhibitory concentrations which cause a 50-percent displacement of capsaicin were calculated. Ki values for the test substances were obtained by conversion by means of the Cheng-Prusoff equation (Cheng, Prusoff; Biochem. Pharmacol. 22, 3099-3108, 1973).
Sequence of hVR1 (Q8NER1 whole entry): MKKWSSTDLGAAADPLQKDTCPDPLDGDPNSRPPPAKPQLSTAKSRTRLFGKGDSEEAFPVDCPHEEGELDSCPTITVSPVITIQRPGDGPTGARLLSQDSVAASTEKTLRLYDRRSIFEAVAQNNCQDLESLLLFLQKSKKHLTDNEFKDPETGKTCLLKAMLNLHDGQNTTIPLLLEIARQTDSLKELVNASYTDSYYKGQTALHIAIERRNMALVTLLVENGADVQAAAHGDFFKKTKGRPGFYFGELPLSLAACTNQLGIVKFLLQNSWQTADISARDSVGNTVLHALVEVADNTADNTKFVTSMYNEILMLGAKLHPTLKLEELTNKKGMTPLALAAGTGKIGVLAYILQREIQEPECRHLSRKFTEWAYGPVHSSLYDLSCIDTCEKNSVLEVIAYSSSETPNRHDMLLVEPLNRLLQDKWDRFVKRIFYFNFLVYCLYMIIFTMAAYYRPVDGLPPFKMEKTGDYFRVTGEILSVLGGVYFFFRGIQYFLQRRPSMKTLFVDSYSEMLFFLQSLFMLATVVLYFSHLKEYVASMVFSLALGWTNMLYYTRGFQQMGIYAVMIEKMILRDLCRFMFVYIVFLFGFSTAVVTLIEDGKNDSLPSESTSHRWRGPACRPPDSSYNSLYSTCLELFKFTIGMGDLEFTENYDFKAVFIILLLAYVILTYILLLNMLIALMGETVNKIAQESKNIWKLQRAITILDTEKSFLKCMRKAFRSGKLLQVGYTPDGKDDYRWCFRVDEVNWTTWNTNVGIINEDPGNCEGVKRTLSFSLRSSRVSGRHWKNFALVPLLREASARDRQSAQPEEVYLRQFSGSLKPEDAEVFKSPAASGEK
`CN(C(=O)NCc1cc(C(F)(F)F)nn1-c1cccc(Cl)c1)c1cccc(F)c1` [Example 123, 3-((1-(3-chlorophenyl)-3-(trifluoromethyl)-1H-pyrazol-5-yl)methyl)-1-(3-fluorophenyl)-1-methylurea]: the inhibition – broadly, the share of the control response that was lost under treatment – at 5 µM stood at 44%. On the same count and under the same terms, the result for `CCCCCn1nc(C(F)(F)F)cc1CNC(=O)Cc1cccc(F)c1` [Example 131, 2-(3-fluorophenyl)-N-((1-pentyl-3-(trifluoromethyl)-1H-pyrazol-5-yl)methyl)acetamide] reads 58%; that for `COc1ccc(Cn2nc(C(F)(F)F)cc2CNC(=O)Cc2cccc(F)c2)cc1` [Example 132, 2-(3-fluorophenyl)-N-((1-(4-methoxybenzyl)-3-(trifluoromethyl)-1H-pyrazol-5-yl)methyl)acetamide], 34%.

Take `CC(C)(C)c1cc(CNC(=O)Cc2cccc(F)c2)n(NCC(F)(F)F)n1` [Example 133, N-((3-tert-butyl-1-(2,2,2-trifluoroethylamino)-1H-pyrazol-5-yl)methyl)-2-(3-fluorophenyl)acetamide]: the inhibition at 5 µM amounted to 12%. Turning to `CC(C)(C)c1nc(CNC(=O)Cc2cccc(F)c2)n(-c2cccc(Cl)c2)n1` [Example 135, N-((3-tert-butyl-1-(3-chlorophenyl)-1H-1,2,4-triazol-5-yl)methyl)-2-(3-fluorophenyl)acetamide], the inhibition at 5 µM was determined as 24%.

Staying with this assay, now noted: CHO-K1, read-out: Ki (human being) inhibition (as a percentage) @ 1 μM, capsaicin, inhibition determined at 1 μM.
On to `O=C(NCc1cc(C(F)(F)F)nn1-c1cccc(Cl)c1)C1(c2cccc(F)c2)CCCC1` [Example 120, N-((1-(3-chlorophenyl)-3-(trifluoromethyl)-1H-pyrazol-5-yl)methyl)-1-(3-fluorophenyl)cyclopentancarboxamide], for which the inhibition at 1 µM amounted to 6%.

The assay is the same for the next values; noted with them: capsaicin.
As for `COc1c(F)cc(NC(=O)NCc2cc(C(C)(C)C)nn2-c2cccc(Cl)c2)cc1F` [Example 61, 1-((3-tert-butyl-1-(3-chlorophenyl)-1H-pyrazol-5-yl)methyl)-3-(3,5-difluoro-4-methoxyphenyl)urea], the “Ki (human being) Cap: result in words (NE / AG)” value (from here on “Ki (human being) Cap … (NE / AG)”) is on record as “AG”.

For `CC(C)(C)c1cc(CNC(=O)Cc2cccc(F)c2)n(-c2cccc(Cl)c2)n1` [Example 73, N-((3-tert-butyl-1-(3-chlorophenyl)-1H-pyrazol-5-yl)methyl)-2-(3-fluorophenyl)acetamide], the “Ki (human being) Cap … (NE / AG)” value is “AG”. Still for that read-out and setting: the result for `CC(C)(C)c1cc(CNC(=O)C2(c3cccc(F)c3)CC2)n(-c2cccc(Cl)c2)n1` [Example 118, N-((3-tert-butyl-1-(3-chlorophenyl)-1H-pyrazol-5-yl)methyl)-1-(3-fluorophenyl)cyclopropancarboxamide] reads “AG”.

On to `CC(C)(C)c1cc(CNC(=O)Nc2cccc(F)c2)n(-c2ccc(F)cc2)n1` [Example 122, 1-((3-tert-butyl-1-(4-fluorophenyl)-1H-pyrazol-5-yl)methyl)-3-(3-fluorophenyl)urea], for which the “Ki (human being) Cap … (NE / AG)” value is recorded as “AG”. For the compound `CC(C(=O)NCc1cc(C(C)(C)C)nn1-c1cccc(Cl)c1)c1ccc(C2CC2)c(F)c1` (centres unmarked) [Example 125, N-((3-tert-butyl-1-(3-chlorophenyl)-1H-pyrazol-5-yl)methyl)-2-(4-cyclopropyl-3-fluorophenyl)propanamide], the “Ki (human being) Cap … (NE / AG)” value is listed as “AG”.

Take `O=C(NCc1cc(C(F)(F)F)nn1-c1cccc(Cl)c1)Nc1ccc(C#CC2CC2)c(F)c1` [Example 139, 1-((1-(3-chlorophenyl)-3-(trifluoromethyl)-1H-pyrazol-5-yl)methyl)-3-(4-(cyclopropylethynyl)-3-fluorophenyl)urea]: the “Ki (human being) Cap … (NE / AG)” value was “AG”.

The same assay, now with this note: capsaicin (Cap), read-out: Ki (human being) [nM] Cap.
In the case of `CC(C(=O)NCc1cc(C(F)(F)F)nn1-c1cccc(Cl)c1)c1cc(F)cc(F)c1` (centres unmarked) [Example 30, N-((1-(3-chlorophenyl)-3-(trifluoromethyl)-1H-pyrazol-5-yl)methyl)-2-(3,5-difluorophenyl)propanamide], the Ki (as a rule, a measure of affinity in units of concentration, obtained from inhibition or displacement) was determined as 6.3 nM. The same measure, in the same setting: the result for `CC(C(=O)NCc1cc(C(C)(C)C)nn1-c1cccc(Cl)c1)c1ccc(CNS(C)(=O)=O)c(F)c1` (centres unmarked) [Example 33, N-((3-tert-butyl-1-(3-chlorophenyl)-1H-pyrazol-5-yl)methyl)-2-(3-fluoro-4-(methylsulphonamidomethyl)phenyl)propanamide] reads 4 nM; that for `CC(C(=O)NCc1cc(C(F)(F)F)nn1-c1cccc(Cl)c1)c1ccc(C(=O)Nc2ccccc2)c(F)c1` (centres unmarked) [Example 39, 4-(1-((1-(3-chlorophenyl)-3-(trifluoromethyl)-1H-pyrazol-5-yl)methylamino)-1-oxopropan-2-yl)-2-fluoro-N-phenylbenzamide], 7.2 nM. For `CC(C(=O)NCc1cc(C(F)(F)F)nn1-c1cccc(Cl)c1)c1ccc(C(=O)Nc2ccc(F)cc2)cc1` (centres unmarked) [Example 40, 4-(1-((1-(3-chlorophenyl)-3-(trifluoromethyl)-1H-pyrazol-5-yl)methylamino)-1-oxopropan-2-yl)-N-(4-fluorophenyl)benzamide], the inhibition constant (Ki) is 0.8 nM.

As to `CC(C(=O)NCc1cc(C(F)(F)F)nn1-c1cccc(Cl)c1)c1ccc(C(=O)Nc2ccc(C(F)(F)F)cc2)cc1` (centres unmarked) [Example 41, 4-(1-((1-(3-chlorophenyl)-3-(trifluoromethyl)-1H-pyrazol-5-yl)methylamino)-1-oxopropan-2-yl)-N-(4-(trifluoromethyl)phenyl)benzamide], the Ki was 85 nM. For the compound `COc1c(F)cc(C(C)C(=O)NCc2cc(C(F)(F)F)nn2-c2cccc(Cl)c2)cc1F` (centres unmarked) [Example 47, N-((1-(3-chlorophenyl)-3-(trifluoromethyl)-1H-pyrazol-5-yl)methyl)-2-(3,5-difluoro-4-methoxyphenyl)propanamide], the inhibitory constant (Ki) was determined as 17 nM. On the same count and under the same terms, the result for `CC(C)(C(=O)NCc1cc(C(F)(F)F)nn1-c1cccc(Cl)c1)c1cccc(F)c1` [Example 117, N-((1-(3-chlorophenyl)-3-(trifluoromethyl)-1H-pyrazol-5-yl)methyl)-2-(3-fluorophenyl)-2-methylpropanamide] reads 56 nM; that for `O=C(NCc1cc(C(F)(F)F)nn1-c1cccc(Cl)c1)C1(c2cccc(F)c2)CCC1` [Example 119, N-((1-(3-chlorophenyl)-3-(trifluoromethyl)-1H-pyrazol-5-yl)methyl)-1-(3-fluorophenyl)cyclobutancarboxamide], 107 nM.

As for `O=C(NCc1cc(C(F)(F)F)nn1-c1cccc(Cl)c1)Nc1ccc(C2CC2)c(F)c1` [Example 126, 1-((1-(3-chlorophenyl)-3-(trifluoromethyl)-1H-pyrazol-5-yl)methyl)-3-(4-cyclopropyl-3-fluorophenyl)urea], the inhibition constant Ki is 31.4 nM. On the same count and under the same terms, the result for `CC(C(=O)NCc1cc(C(C)(C)C)nn1-c1ccccn1)c1ccc(CNS(C)(=O)=O)c(F)c1` (centres unmarked) [Example 127, N-((3-tert-butyl-1-(pyridin-2-yl)-1H-pyrazol-5-yl)methyl)-2-(3-fluoro-4-(methylsulfonamidmethyl)phenyl)propanamide] reads 58.1 nM.

For `CC(C(=O)NCc1cc(C(F)(F)F)nn1NCc1ccccn1)c1ccc(CNS(C)(=O)=O)c(F)c1` (centres unmarked) [Example 129, 2-(3-fluoro-4-(methylsulfonamidmethyl)phenyl)-N-((1-(pyridin-2-ylmethylamino)-3-(trifluoromethyl)-1H-pyrazol-5-yl)methyl)propanamide], the Ki was 63.6 nM. For `Cc1c(C(F)(F)F)nn(-c2cccc(Cl)c2)c1CNC(=O)Cc1cccc(F)c1` [Example 130, N-((1-(3-chlorophenyl)-4-methyl-3-(trifluoromethyl)-1H-pyrazol-5-yl)methyl)-2-(3-fluorophenyl)acetamide], the inhibition constant Ki amounted to 112 nM.

For the compound `Cc1c(C(F)(F)F)nn(-c2cccc(Cl)c2)c1CNC(=O)C(C)c1ccc(CNS(C)(=O)=O)c(F)c1` (centres unmarked) [Example 134, N-((1-(3-chlorophenyl)-4-methyl-3-(trifluoromethyl)-1H-pyrazol-5-yl)methyl)-2-(3-fluoro-4-(methylsulfonamidmethyl)phenyl)propanamide], the Ki is 2.5 nM. Turning to `CC(C(=O)NCc1cc(C(F)(F)F)nn1C1CCCCC1)c1ccc(CNS(C)(=O)=O)c(F)c1` (centres unmarked) [Example 137, N-((1-cyclohexyl-3-(trifluoromethyl)-1H-pyrazol-5-yl)methyl)-2-(3-fluoro-4-(methylsulfonamidmethyl)phenyl)propanamide], the inhibition constant Ki is 65.1 nM.

For the origin of these results see patent publication US9120756B2, “Substituted phenylureas and phenylamides as vanilloid receptor ligands” (Gruenenthal GmbH, priority 2009, dated 2015).
